US20090191137A1, “Method and Material for Controlling or Eliminating Potentially Harmful, Contaminating or Nuisance Micro-Organisms or Cells” (priority 2007, published 2009)

Tested on: algae (Chlamydomonas)
Assay: NM7O added to a suspension of algae (algaecide test)
Format: cell-based
Details: algae 1×10^6 cells/ml in tubes
Text: The color change can serve as a valuable indicator of activity, as untreated NM7O remains suspended and violet colored.
This may be due to the requirement of direct contact between the product and the algae.

SMILES: O=S(=O)([O-])[O-].[Cu+2] [copper sulfate]
- effect on algal suspension (appearance of the solution): the solution turned blue
- microscopic evaluation of the sediment (appearance of treated cells): appeared intact with full cellular contents
